Measured values taken from patent US9717253B2, “Synergistic Bacillus thuringiensis subsp. aizawai and chlorantraniliprole mixtures for diamondback moth, beet armyworm, soybean looper, corn earworm, cabbage looper, and southwestern corn borer control” (priority 2015, dated 2017).
Like-named read-outs stand apart in the source and are kept apart here.

Legend:
beet armyworm larvae = test: Leaf dip test, beet armyworm larvae; format: in vivo; details: Spodoptera exigua, foliar, Bta 2.7 ppm, chlorantraniliprole 0.0009 ppm, mixture 2.7 ppm + 0.0009 ppm, read-out: % Efficacy
Method: (§1) For these tests, standardized laboratory leaf dip methods were used to inoculate plant material with treatment(s). Dry, treated leaves were placed into Petri dishes (100×25 mm) containing filter paper wetted with 500 μl of distilled H2O (“dH2O”). Each dish was then infested with between 5 and 10 larvae, dependent on species. Efficacy ratings were taken at specified intervals. Synergy ratings were calculated for each test.
(§2) % Cexp=A+B−(AB/100), where % Cexp is the expected efficacy and “in which A and B are the control levels given by the single [insecticides]. If the ratio between the experimentally observed efficacy of the mixture Cobs and the expected efficacy of the mixture is greater than 1, synergistic interactions are present in the mixture.” (Gisi, Synergisitic Interaction of Fungicides in Mixtures, The American Phytopathological Society, 86:11, 1273-1279, 1996). Adopting a conservative approach, Applicant determined synergy to be present at ratios of ≧1.15.
In this study, the response of beet armyworm larvae to amounts of Bacillus thuringiensis subsp. aizawai and chlorantraniliprole was observed.
(§3) Bacillus thuringiensis subsp. aizawai was applied at a concentration of 2.7 ppm (2.7 μg/ml). Chlorantraniliprole was applied at a concentration of 0.0009 ppm (0.0009 μg/ml). […]

diamondback moth larvae = test: Leaf dip test, diamondback moth larvae; format: in vivo; details: Plutella xylostella, foliar, Bta 2.7 ppm, chlorantraniliprole 0.0009 ppm, mixture 2.7 ppm + 0.0009 ppm, read-out: % Efficacy
Method: as §1
In this study, the response of diamondback moth larvae to synergistic amounts of Bacillus thuringiensis subsp. aizawai (“Bta”) and chlorantraniliprole was observed.
as §2, §3

cabbage looper larvae = test: Leaf dip test, cabbage looper larvae; format: in vivo; details: Trichoplusia ni, foliar, Bta 2.7 ppm, chlorantraniliprole 0.0009 ppm, mixture 2.7 ppm + 0.0009 ppm, read-out: % Efficacy
Method: as §1, §2
In this study, the response of cabbage looper larvae to amounts of Bacillus thuringiensis subsp. aizawai and chlorantraniliprole was observed.
as §3

sugarcane borer larvae = test: Leaf dip test, sugarcane borer larvae; format: in vivo; details: foliar, Bta 27 ppm, chlorantraniliprole 0.0009 ppm, mixture 27 ppm + 0.0009 ppm, read-out: % Efficacy
Method: as §1, §2
In this study, the response of sugarcane borer larvae to amounts of Bacillus thuringiensis subsp. aizawai and chlorantraniliprole was observed.
(§4) Bacillus thuringiensis subsp. aizawai was applied at a concentration of 27 ppm (27 μg/ml). Chlorantraniliprole was applied at a concentration of 0.0009 ppm (0.0009 μg/ml). […]

corn earworm larvae = test: Leaf dip test, corn earworm larvae; format: in vivo; details: Helicoverpa zea, foliar, Bta 27 ppm, chlorantraniliprole 0.0009 ppm, mixture 27 ppm + 0.0009 ppm, read-out: % Efficacy
Method: as §1, §2
In this study, the response of corn earworm larvae to amounts of Bacillus thuringiensis subsp. aizawai and chlorantraniliprole was observed.
as §4

[1] = test system: southwestern corn borer larvae; test: Leaf dip test, southwestern corn borer larvae; format: in vivo, Diatraea grandiosella; details: foliar, Bta 2.7 ppm, chlorantraniliprole 0.0009 ppm, mixture 2.7 ppm + 0.0009 ppm, read-out: % Efficacy
Method: as §1, §2
In this study, the response of southwestern corn borer larvae to amounts of Bacillus thuringiensis subsp. aizawai and chlorantraniliprole was observed.
as §3

soybean looper larvae = test: Leaf dip test, soybean looper larvae; format: in vivo, Chrysodeixis includens; details: foliar, Bta 27 ppm, chlorantraniliprole 0.0009 ppm, mixture 27 ppm + 0.0009 ppm, read-out: % Efficacy
Method: as §1, §2
In this study, the response of soybean looper larvae to amounts of Bacillus thuringiensis subsp. aizawai and chlorantraniliprole was observed.
as §4

Compound CNC(=O)c1cc(Cl)cc(C)c1NC(=O)c1cc(Br)nn1-c1ncccc1Cl [Chlorantraniliprole, chlorantraniliprole] has an Emax at 0.0009 ppm (beet armyworm larvae; 24 h after treatment) of 10%, an Emax at 0.0009 ppm (beet armyworm larvae; 48 h after treatment) of 13% and an Emax at 0.0009 ppm (diamondback moth larvae; 24 h after treatment) of 7%. For the same compound, the Emax at 0.0009 ppm (diamondback moth larvae; 48 h after treatment) was 7%, the Emax at 0.0009 ppm (cabbage looper larvae; 24 h after treatment) was 7% and the Emax at 0.0009 ppm (cabbage looper larvae; 48 h after treatment) was 10%. The Emax at 0.0009 ppm (sugarcane borer larvae; 24 h after treatment) was 6%, the Emax at 0.0009 ppm (sugarcane borer larvae; 48 h after treatment) was 12% and the Emax at 0.0009 ppm (corn earworm larvae; 24 h after treatment) was 10%. For the same compound, the Emax at 0.0009 ppm (corn earworm larvae; 48 h after treatment) was 7%, the Emax at 0.0009 ppm ([1]; 24 h after treatment) was 3% and the Emax at 0.0009 ppm ([1]; 48 h after treatment) was 7%. For the same compound, the Emax at 0.0009 ppm (soybean looper larvae; 24 h after treatment) was 10% and the Emax at 0.0009 ppm (soybean looper larvae; 48 h after treatment) was 13%.
